Legend:
Assay type in all cases: in vivo
Stellaria media [1] = test: Pre-emergence herbicidal action, STEME; parameters: key to Herbicidal action against STEME: % activity: 100 = plants have died, 0 = like control plants; settings: comparative experiment
Procedure, shortened: (§1)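 Percent damage, assessed visually after 3 weeks and referenced to untreated controls, reflects a pre-emergence treatment. Spray liquid equated to 600 to 800 l/ha with 0.2% wetting agent, applied to the covering soil over seeds in sandy loam.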

Setaria viridis [2] = test: Pre-emergence herbicidal action, SETVI; parameters: key to Herbicidal action against SETVI: % activity: 100 = plants have died, 0 = like control plants; settings: comparative experiment
Procedure, shortened: as §1

Setaria viridis [3] = test: Post-emergence herbicidal action, SETVI; parameters: key: % herbicidal action vs untreated; 100 = plants died, 0 = like control; settings: comparative experiment, post-emergence, 20 g of a.i./ha
Procedure, shortened: (§2)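 Greenhouse post-emergence test: weeds sown in sandy loam were sprayed once at one leaf, 2 to 3 weeks from sowing, with aqueous WP or EC preparations carrying 0.2% wetting agent. Effect is scored visually after about 3 weeks.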

Amaranthus retroflexus = test: Post-emergence herbicidal action, AMARE; parameters: key: % herbicidal action vs untreated; 100 = plants died, 0 = like control; settings: comparative experiment, post-emergence, 20 g of a.i./ha
Procedure, shortened: as §2

Echinochloa crus-galli [4] = test: Post-emergence herbicidal action, ECHCG; parameters: key: % herbicidal action vs untreated; 100 = plants died, 0 = like control; settings: comparative experiment, post-emergence, 20 g of a.i./ha
Procedure, shortened: as §2

Abutilon theophrasti [5] = test: Pre-emergence herbicidal action, ABUTH; parameters: key to Herbicidal action against ABUTH: % activity: 100 = plants have died, 0 = like control plants; settings: comparative experiment
Procedure, shortened: as §1

Viola tricolor [6] = test: Post-emergence herbicidal action, VIOTR; parameters: key: % herbicidal action vs untreated; 100 = plants died, 0 = like control; settings: comparative experiment, post-emergence, 20 g of a.i./ha
Procedure, shortened: as §2

Viola tricolor [7] = test: Pre-emergence herbicidal action, VIOTR; parameters: key to Herbicidal action against VIOTR: % activity: 100 = plants have died, 0 = like control plants; settings: comparative experiment
Procedure, shortened: as §1

Cyperus esculentus = test: Pre-emergence herbicidal action, CYPES; parameters: key: % activity: 100 = plants have died, 0 = like control plants; settings: comparative experiment
Procedure, shortened: as §1

Alopecurus myosuroides [8] = test: Pre-emergence herbicidal action, ALOMY; parameters: key: % activity: 100 = plants have died, 0 = like control plants; settings: comparative experiment
Source text: 1. Pre-Emergence Herbicidal Action Against Harmful Plants Seeds of monocotyledonous and dicotyledonous weed plants and crop plants are laid out in sandy loam soil in wood-fiber pots and covered with soil. The compounds of the invention, formulated in the form of wettable powders (WP) or as emulsion concentrates (EC), are then applied to the surface of the covering soil in the form of an aqueous suspension or emulsion at a water application rate equating to 600 to 800 l/ha, with addition of 0.2% wetting agent. After the treatment, the pots are placed in a greenhouse and kept under good growth conditions for the trial plants. The damage to the test plants is scored visually after a test period of 3 weeks by comparison with untreated controls (herbicidal activity in percent (%): 100% activity=the plants have died, 0% activity=like control plants). […] The tables below illustrate, in an exemplary manner, the […] herbicidal action of the compounds according to the invention, the herbicidal activity being stated in percent. [table] In the experiments that follow, herbicidal action of numerous inventive compounds and the known compounds that are structurally closest from D1 (WO 2012/028579 A1) and D2 (WO 2018/202535 A1) were compared under the above-specified conditions by the pre-emergence and post-emergence method. The example numbers given in the tables relate to the compounds disclosed in the respective documents. In addition to the compounds disclosed in D1 and D2, the following compounds V-1 to V-14 that are encompassed by D1 or D2 but are not compounds specified therein were used in the comparative experiments: • V-1: 2-(methylsulfanyl)-3-(methylsulfinyl)-N-(1-methyl-1H-tetrazol-5-yl)-4-(trifluoromethyl)benzamide • V-2: 2-(methylsulfanyl)-3-(methylsulfonyl)-N-(1-methyl-1H-tetrazol-5-yl)-4-(trifluoromethyl)benzamide • V-3: 2,3-bis(ethylsulfanyl)-N-(1-methyl-1H-tetrazol-5-yl)-4-(trifluoromethyl)benzamide • V-4: 2-chloro-3-(ethylsulfanyl)-N-(1-methyl-1H-tetrazol-5-yl)-4-(trifluoromethyl)benzamide • V-5: 2-chloro-4-iodo-3-(methylsulfanyl)-N-(1-methyl-1H-tetrazol-5-yl)benzamide • V-6: 2-chloro-4-iodo-3-(methylsulfinyl)-N-(1-methyl-1H-tetrazol-5-yl)benzamide • V-7: 2-chloro-4-iodo-3-(methylsulfonyl)-N-(1-methyl-1H-tetrazol-5-yl)benzamide • V-8: 2-bromo-3-(methylsulfanyl)-N-(1-methyl-1H-tetrazol-5-yl)-4-(trifluoromethyl)benzamide • V-9: 2-bromo-3-(methylsulfinyl)-N-(1-methyl-1H-tetrazol-5-yl)-4-(trifluoromethyl)benzamide • V-10: 2-bromo-3-(methylsulfonyl)-N-(1-methyl-1H-tetrazol-5-yl)-4-(trifluoromethyl)benzamide • V-11: 2-bromo-3-(ethylsulfanyl)-N-(1-methyl-1H-tetrazol-5-yl)-4-(trifluoromethyl)benzamide • V-12: 2-bromo-3-(ethylsulfinyl)-N-(1-methyl-1H-tetrazol-5-yl)-4-(trifluoromethyl)benzamide • V-13: 2-bromo-3-(ethylsulfonyl)-N-(1-methyl-1-1H-tetrazol-5-yl)-4-(trifluoromethyl)benzamide • V-14: 2-cyclopropyl-3-(ethylsulfanyl)-N-(1-methyl-1H-tetrazol-5-yl)-4-(trifluoromethyl)benzamide Herbicidal Pre-Emergence Action: […]

Veronica persica [9] = test: Post-emergence herbicidal action, VERPE; parameters: key: % herbicidal action vs untreated; 100 = plants died, 0 = like control; settings: comparative experiment, post-emergence
Procedure, shortened: as §2

Echinochloa crus-galli [10] = test: Pre-emergence herbicidal action, ECHCG; settings: Echinochloa crus-galli, 504 h, comparative experiment, 80 g of a.i./ha, read-out: Herbicidal action against ECHCG
Procedure, shortened: as §1

Matricaria inodora [11] = test: Post-emergence herbicidal action, MATIN; parameters: key: % herbicidal action vs untreated; 100 = plants died, 0 = like control; settings: comparative experiment, post-emergence
Procedure, shortened: as §2

Abutilon theophrasti [12] = test: Post-emergence herbicidal action, ABUTH; parameters: key: % herbicidal action vs untreated; 100 = plants died, 0 = like control; settings: comparative experiment, post-emergence, 20 g of a.i./ha
Procedure, shortened: as §2

Veronica persica [13] = test: Pre-emergence herbicidal action, VERPE; parameters: key to Herbicidal action against VERPE: % activity: 100 = plants have died, 0 = like control plants; settings: comparative experiment, 20 g of a.i./ha
Procedure, shortened: as §1

Avena fatua [14] = test: Pre-emergence herbicidal action, AVEFA; settings: comparative experiment, 20 g of a.i./ha
Source text: 1. Pre-Emergence Herbicidal Action Against Harmful Plants Seeds of monocotyledonous and dicotyledonous weed plants and crop plants are laid out in sandy loam soil in wood-fiber pots and covered with soil. The compounds of the invention, formulated in the form of wettable powders (WP) or as emulsion concentrates (EC), are then applied to the surface of the covering soil in the form of an aqueous suspension or emulsion at a water application rate equating to 600 to 800 l/ha, with addition of 0.2% wetting agent. After the treatment, the pots are placed in a greenhouse and kept under good growth conditions for the trial plants. The damage to the test plants is scored visually after a test period of 3 weeks by comparison with untreated controls (herbicidal activity in percent (%): 100% activity=the plants have died, 0% activity=like control plants). […] The tables below illustrate, in an exemplary manner, the post-emergence herbicidal action of the compounds according to the invention, the herbicidal activity being stated in percent. [table] In the experiments that follow, herbicidal action of numerous inventive compounds and the known compounds that are structurally closest from D1 (WO 2012/028579 A1) and D2 (WO 2018/202535 A1) were compared under the above-specified conditions by the pre-emergence and post-emergence method. […]

Matricaria inodora [15] = test: Pre-emergence herbicidal action, MATIN; parameters: key to Herbicidal action against MATIN: % activity: 100 = plants have died, 0 = like control plants; settings: comparative experiment, 20 g of a.i./ha
Procedure, shortened: as §1

Pharbitis purpurea = test: Pre-emergence herbicidal action, PHBPU; settings: comparative experiment, 20 g of a.i./ha
Procedure, shortened: as §1

Lolium multiflorum = test: Post-emergence herbicidal action, LOLMU; parameters: key: % herbicidal action: 100 = plants died, 0 = like control; settings: comparative experiment, post-emergence, 5 g of a.i./ha
Method: (§3) [table] 2. Post-Emergence Herbicidal Action Against Harmful Plants Seeds of monocotyledonous and dicotyledonous weed and crop plants are laid out in sandy loam soil in wood-fiber pots, covered with soil and cultivated in a greenhouse under good growth conditions. 2 to 3 weeks after sowing, the test plants are treated at the one-leaf stage. The compounds of the invention, formulated in the form of wettable powders (WP) or as emulsion concentrates (EC), are then sprayed onto the green parts of the plants in the form of an aqueous suspension or emulsion at a water application rate equating to 600 to 800 l/ha, with addition of 0.2% wetting agent. After the test plants have been left to stand in the greenhouse under optimal growth conditions for about 3 weeks, the action of the preparations is assessed visually in comparison to untreated controls (herbicidal action in percent (%): 100% activity=the plants have died, 0% activity=like control plants). […] The tables below illustrate, in an exemplary manner, the post-emergence herbicidal action of the compounds according to the invention, the herbicidal activity being stated in percent. In the experiments that follow, herbicidal action of numerous inventive compounds and the known compounds that are structurally closest from D1 (WO 2012/028579 A1) and D2 (WO 2018/202535 A1) were compared under the above-specified conditions by the pre-emergence and post-emergence method. The example numbers given in the tables relate to the compounds disclosed in the respective documents. In addition to the compounds disclosed in D1 and D2, the following compounds V-1 to V-14 that are encompassed by D1 or D2 but are not compounds specified therein were used in the comparative experiments: • V-1: 2-(methylsulfanyl)-3-(methylsulfinyl)-N-(1-methyl-1H-tetrazol-5-yl)-4-(trifluoromethyl)benzamide • V-2: 2-(methylsulfanyl)-3-(methylsulfonyl)-N-(1-methyl-1H-tetrazol-5-yl)-4-(trifluoromethyl)benzamide • V-3: 2,3-bis(ethylsulfanyl)-N-(1-methyl-1H-tetrazol-5-yl)-4-(trifluoromethyl)benzamide • V-4: 2-chloro-3-(ethylsulfanyl)-N-(1-methyl-1H-tetrazol-5-yl)-4-(trifluoromethyl)benzamide • V-5: 2-chloro-4-iodo-3-(methylsulfanyl)-N-(1-methyl-1H-tetrazol-5-yl)benzamide • V-6: 2-chloro-4-iodo-3-(methylsulfinyl)-N-(1-methyl-1H-tetrazol-5-yl)benzamide • V-7: 2-chloro-4-iodo-3-(methylsulfonyl)-N-(1-methyl-1H-tetrazol-5-yl)benzamide • V-8: 2-bromo-3-(methylsulfanyl)-N-(1-methyl-1H-tetrazol-5-yl)-4-(trifluoromethyl)benzamide • V-9: 2-bromo-3-(methylsulfinyl)-N-(1-methyl-1H-tetrazol-5-yl)-4-(trifluoromethyl)benzamide • V-10: 2-bromo-3-(methylsulfonyl)-N-(1-methyl-1H-tetrazol-5-yl)-4-(trifluoromethyl)benzamide • V-11: 2-bromo-3-(ethylsulfanyl)-N-(1-methyl-1H-tetrazol-5-yl)-4-(trifluoromethyl)benzamide • V-12: 2-bromo-3-(ethylsulfinyl)-N-(1-methyl-1H-tetrazol-5-yl)-4-(trifluoromethyl)benzamide • V-13: 2-bromo-3-(ethylsulfonyl)-N-(1-methyl-1-1H-tetrazol-5-yl)-4-(trifluoromethyl)benzamide • V-14: 2-cyclopropyl-3-(ethylsulfanyl)-N-(1-methyl-1H-tetrazol-5-yl)-4-(trifluoromethyl)benzamide Herbicidal Pre-Emergence Action: […]

Polygonum convolvulus = test: Post-emergence herbicidal action, POLCO; settings: comparative experiment, post-emergence, 5 g of a.i./ha
Procedure, shortened: as §2

Avena fatua [16] = test: Post-emergence herbicidal action, AVEFA; parameters: key: % herbicidal action vs untreated; 100 = plants died, 0 = like control; settings: comparative experiment, post-emergence, 5 g of a.i./ha
Method: as §3

Alopecurus myosuroides [17] = test: Post-emergence herbicidal action, ALOMY; parameters: key: % herbicidal action vs untreated; 100 = plants died, 0 = like control; settings: comparative experiment, post-emergence, 5 g of a.i./ha
Procedure, shortened: as §2

Stellaria media [18] = test: Post-emergence herbicidal action, STEME; parameters: key: % herbicidal action vs untreated; 100 = plants died, 0 = like control; settings: comparative experiment, post-emergence, 5 g of a.i./ha
Procedure, shortened: as §2

Compound: CC[S+]([O-])c1c(C(F)(F)F)ccc(C(=O)Nc2nnnn2C)c1Br (stereo not drawn) [Example V-12, 2-bromo-3-(ethylsulfinyl)-N-(1-methyl-1H-tetrazol-5-yl)-4-(trifluoromethyl)benzamide, reference compound]
- Herbicidal action against STEME (Stellaria media [1]; 80 g of a.i./ha): 0
- Herbicidal action against SETVI (Setaria viridis [2]; 80 g of a.i./ha): 0
- Herbicidal action against SETVI (Setaria viridis [3]): 20
- Herbicidal action against AMARE (Amaranthus retroflexus): 10
- Herbicidal action against ECHCG (Echinochloa crus-galli [4]): 0
- Herbicidal action against ABUTH (Abutilon theophrasti [5]; 80 g of a.i./ha): 0
- Herbicidal action against VIOTR (Viola tricolor [6]): 0
- Herbicidal action against VIOTR (Viola tricolor [7]; 80 g of a.i./ha): 0
- Herbicidal action against CYPES (Cyperus esculentus; 80 g of a.i./ha): 0
- Herbicidal action against ALOMY (Alopecurus myosuroides [8]; 80 g of a.i./ha): 0
- Herbicidal action against VERPE (Veronica persica [9]; 20 g of a.i./ha): 0
- pest or weed control at 80 g/ha (Echinochloa crus-galli [10]): 0%
- Herbicidal action against MATIN (Matricaria inodora [11]; 20 g of a.i./ha): 0
- Herbicidal action against ABUTH (Abutilon theophrasti [12]): 0

Compound: CSCc1c(Cl)ccc(C(=O)Nc2nnnn2C)c1C [Example 1-46]
- Herbicidal action against STEME (Stellaria media [1]; 20 g of a.i./ha): 90
- Herbicidal action against VERPE (Veronica persica [13]): 50
- Herbicidal action against AVEFA (Avena fatua [14]): 20
- Herbicidal action against VIOTR (Viola tricolor [7]; 20 g of a.i./ha): 70
- Herbicidal action against MATIN (Matricaria inodora [15]): 80
- Herbicidal action against PHBPU (Pharbitis purpurea): 40

Compound: CCSc1c(C(F)(F)F)ccc(C(=O)Nc2nnnn2C)c1Cl [Example V-4, 2-chloro-3-(ethylsulfanyl)-N-(1-methyl-1H-tetrazol-5-yl)-4-(trifluoromethyl)benzamide, reference compound]
- Herbicidal action against LOLMU (Lolium multiflorum): 10
- Herbicidal action against SETVI (Setaria viridis [2]; 20 g of a.i./ha): 60
- Herbicidal action against POLCO (Polygonum convolvulus): 30
- Herbicidal action against AVEFA (Avena fatua [16]): 30
- Herbicidal action against VERPE (Veronica persica [13]): 80
- Herbicidal action against ALOMY (Alopecurus myosuroides [17]): 40
- Herbicidal action against ABUTH (Abutilon theophrasti [5]; 20 g of a.i./ha): 0
- Herbicidal action against MATIN (Matricaria inodora [15]): 50
- Herbicidal action against CYPES (Cyperus esculentus; 20 g of a.i./ha): 0
- Herbicidal action against STEME (Stellaria media [18]): 60
- Herbicidal action against ALOMY (Alopecurus myosuroides [8]; 20 g of a.i./ha): 40
- Herbicidal action against VERPE (Veronica persica [9]; 5 g of a.i./ha): 80
- Herbicidal action against MATIN (Matricaria inodora [11]; 5 g of a.i./ha): 60

Reference: patent US12492173B2, “Herbicidal substituted N-tetrazolyl aryl carboxamides” (Bayer Aktiengesellschaft, priority 2019, dated 2025)
